Data from patent US6933298B2, “Pyridine-2,4-dicarboxylic acid diamides and pyrimidine-4,6-dicarboxylic acid diamides and the use thereof for selectively inhibiting collagenases” (Aventis Pharma Deutschland GmbH, priority 2001, dated 2005).

Target: T1, catalytic domain of human collagenase-3 (MMP-13) (Homo sapiens, UniProt P45452)
T1 construct: Determining the enzymic activity of the catalytic domain of human collagenase-3 (MMP-13); purchased INVITEK, Berlin 30 100 803
Experiment: Enzymic activity of the catalytic domain of human collagenase-3 (MMP-13), fluorogenic substrate
Assay type: biochemical
Conditions: activated with APMA, pH 7.5, read-out: IC50 MMP13
Protocol: Determining the enzymic activity of the catalytic domain of human collagenase-3 (MMP-13).
Activation of the proenzyme:
2 parts by volume of proenzyme are incubated with 1 part by volume of APMA solution at 37° C. for 1.5 hours. The APMA solution is prepared from a 10 mmol/l solution of p-aminophenylmercuric acetate in 0.1 mmol/l NaOH by diluting it with 3 parts by volume of Tris/HCl buffer, pH 7.5 (see below). The pH is adjusted to between 7.0 and 7.5 by adding 1 mmol/l HCl.
In order to measure the enzyme activity, 10 μl of enzyme solution are incubated for 15 minutes with 10 μl of a buffered 3% (v/v) solution of dimethyl sulfoxide (reaction 1). In order to measure the enzyme inhibitor activity, 10 μl of enzyme solution are incubated with 10 μl of a buffered 3% (v/v) solution of dimethyl sulfoxide which contains the enzyme inhibitor (reaction 2).
The enzyme activity is presented as increase in extinction/minute.
The buffer solution contains 0.05% Brij (Sigma, Deisenhofen, Germany) and also 0.1 mol of Tris/HCl/l, 0.1 mol of NaCl/1 and 0.01 mol of CaCl2/l (pH=7.5).
The substrate solution contains 0.75 mmol of the fluorogenic substrate (7-methoxycoumarin-4-yl)acetyl-Pro-Leu-Gly-Leu-3-(2′,4′-dinitrophenyl)-L-2,3-diaminopropionyl-Ala-Arg-NH2/I(Bachem, Heidelberg, Germany).

Row | SMILES | IC50
1 | O=C(NCc1ccc2c(c1)CCO2)c1cc(C(=O)NCc2ccc3c(c2)CCO3)ncn1 [Example 22] | 9 nM
2 | O=C(NCc1ccc(Cl)cc1)c1cc(C(=O)NCc2ccc(Cl)cc2)ncn1 [Example 3] | 5600 nM
3 | O=C(NCc1ccc(F)c(F)c1)c1cc(C(=O)NCc2ccc(F)c(F)c2)ncn1 [Example 16] | 105 nM
4 | O=C(NCc1ccc(F)cc1)c1cc(C(=O)NCc2ccc(F)cc2)ncn1 [Example 15] | 190 nM
5 | O=C(NCc1cccc(F)c1)c1cc(C(=O)NCc2cccc(F)c2)ncn1 [Example 14] | 200 nM
6 | O=C(NCc1cccc(C(F)(F)F)c1)c1cc(C(=O)NCc2cccc(C(F)(F)F)c2)ncn1 [Example 11] | 300 nM
7 | O=C(NCc1ccc(F)c(C(F)(F)F)c1)c1cc(C(=O)NCc2ccc(F)c(C(F)(F)F)c2)ncn1 [Example 13] | 210 nM
8 | O=C(NCc1cccc(OC(F)(F)F)c1)c1cc(C(=O)NCc2cccc(OC(F)(F)F)c2)ncn1 [Example 6] | 700 nM
9 | Cc1ccc(CNC(=O)c2cc(C(=O)NCc3ccc(C)cc3)ncn2)cc1 [Example 5] | 2000 nM
10 | O=C(NCc1ccc(F)cc1)c1ccnc(C(=O)NCc2ccc(F)cc2)c1 [Example 7] | 620 nM
11 | COc1ccc(CNC(=O)c2cc(C(=O)NCc3ccc(OC)cc3)ncn2)cc1 [Example 17] | 80 nM
12 | O=C(NCc1cccc(Cl)c1)c1cc(C(=O)NCc2cccc(Cl)c2)ncn1 [Example 19] | 57 nM
13 | Cc1cccc(CNC(=O)c2ccnc(C(=O)NCc3cccc(C)c3)c2)c1 [Example 8] | 400 nM
14 | O=C(NCc1cccc(Cl)c1)c1ccnc(C(=O)NCc2cccc(Cl)c2)c1 [Example 12] | 260 nM
15 | COc1cccc(CNC(=O)c2cc(C(=O)NCc3cccc(OC)c3)ncn2)c1 [Example 21] | 10 nM
16 | COc1ccc(CNC(=O)c2ccnc(C(=O)NCc3ccc(OC)cc3)c2)cc1 [Example 9] | 320 nM
17 | O=C(NCc1ccccc1)c1ccnc(C(=O)NCc2ccccc2)c1 [Example 4] | 3400 nM
18 | O=C(NCc1cc(F)cc(F)c1)c1cc(C(=O)NCc2cc(F)cc(F)c2)ncn1 [Example 10] | 300 nM
19 | O=C(NCc1ccc2c(c1)OCO2)c1cc(C(=O)NCc2ccc3c(c2)OCO3)ncn1 [Example 20] | 14 nM
20 | O=C(NCc1ccc(F)c(Cl)c1)c1cc(C(=O)NCc2ccc(F)c(Cl)c2)ncn1 [Example 2, Pyrimidine-4,6-dicarboxylic acid bis(3-chloro-4-fluorobenzylamide)] | 23 nM
